These results are taken from ChEMBL document CHEMBL1149304, “1,3,4-thiadiazole derivatives. Synthesis, structure elucidation, and structure-antituberculosis activity relationship investigation” (2004).

The test system of the test is Mycobacterium tuberculosis. Kind of test: Antituberculosis activity against Mycobacterium tuberculosis H37Rv ATCC 27294 at 6.25 ug/mL. The format is functional.
In the case of `O=[N+]([O-])c1ccc(-c2nnc(Nc3ccc(Br)cc3)s2)cc1`, the inhibition (in general, how much of the control response was suppressed) at 6.25 µg/mL was 26%. `Clc1ccc(Nc2nnc(-c3ccc(Cl)cc3)s2)cc1` registered an inhibition at 6.25 µg/mL of 32%. Compound `Cc1ccc(Nc2nnc(-c3ccc(Br)cc3)s2)cc1` yielded an inhibition at 6.25 µg/mL of 31%. `Cc1ccc(Nc2nnc(-c3ccccc3)s2)cc1` returned an inhibition at 6.25 µg/mL of 21%.

The compound `Fc1ccc(Nc2nnc(-c3ccccc3)s2)cc1` yielded an inhibition at 6.25 µg/mL of 50%.

In turn, `O=[N+]([O-])c1ccc(Nc2nnc(-c3ccc(Cl)cc3)s2)cc1` returned an inhibition at 6.25 µg/mL of 44%. The figure for `O=[N+]([O-])c1ccc(Nc2nnc(-c3ccc([N+](=O)[O-])cc3)s2)cc1` is 20%; for `Brc1ccc(-c2nnc(Nc3ccccc3)s2)cc1` it is 0%; for `Clc1ccc(Nc2nnc(-c3ccncc3)s2)cc1` it is 59%.

`Fc1ccc(Nc2nnc(-c3ccc(Cl)cc3)s2)cc1` returned an inhibition at 6.25 µg/mL of 54%. Compound `Cc1ccc(Nc2nnc(-c3ccc(F)cc3)s2)cc1` came in with an inhibition at 6.25 µg/mL of 39%. In the case of `Fc1ccc(Nc2nnc(-c3ccc(Br)cc3)s2)cc1`, the inhibition at 6.25 µg/mL came to 42%.

On to `Brc1ccc(Nc2nnc(-c3ccncc3)s2)cc1`, for which testing at 6.25 µg/mL gave an inhibition of 53%. The figure for `c1ccc(Nc2nnc(-c3ccncc3)s2)cc1` is 38%; for `Fc1ccc(Nc2nnc(-c3ccncc3)s2)cc1` it is 49%; for `Clc1ccc(-c2nnc(Nc3ccc(Br)cc3)s2)cc1` it is 34%. `Clc1ccc(Nc2nnc(-c3ccccc3)s2)cc1` yielded an inhibition at 6.25 µg/mL of 30%. The figure for `O=[N+]([O-])c1ccc(Nc2nnc(-c3ccccc3)s2)cc1` is 18%. The figure for `Fc1ccc(Nc2nnc(-c3ccc(F)cc3)s2)cc1` is 52%; for `Brc1ccc(Nc2nnc(-c3ccc(Br)cc3)s2)cc1` it is 33%. `Fc1ccc(-c2nnc(Nc3ccc(Cl)cc3)s2)cc1` displayed an inhibition at 6.25 µg/mL of 42%. As to `Brc1ccc(Nc2nnc(-c3ccccc3)s2)cc1`, the inhibition at 6.25 µg/mL worked out at 36%.

On to `Cc1ccc(Nc2nnc(-c3ccc([N+](=O)[O-])cc3)s2)cc1`, for which the inhibition at 6.25 µg/mL worked out at 33%. For `O=[N+]([O-])c1ccc(Nc2nnc(-c3ccncc3)s2)cc1`, testing at 6.25 µg/mL gave an inhibition of 18%. The figure for `Clc1ccc(Nc2nnc(-c3ccc(Br)cc3)s2)cc1` is 33%; for `Fc1ccc(-c2nnc(Nc3ccc(Br)cc3)s2)cc1` it is 40%. The figure for `O=[N+]([O-])c1ccc(-c2nnc(Nc3ccc(F)cc3)s2)cc1` is 30%. The figure for `O=[N+]([O-])c1ccc(-c2nnc(Nc3ccc(Cl)cc3)s2)cc1` is 29%. Compound `O=[N+]([O-])c1ccc(Nc2nnc(-c3ccc(Br)cc3)s2)cc1` displayed an inhibition at 6.25 µg/mL of 43%.

In the case of `Cc1ccc(Nc2nnc(-c3ccncc3)s2)cc1`, 6.25 µg/mL produced 38% inhibition. Take `O=[N+]([O-])c1ccc(Nc2nnc(-c3ccc(F)cc3)s2)cc1`: the inhibition at 6.25 µg/mL turned out to be 8%.

The compound `Cc1ccc(Nc2nnc(-c3ccc(Cl)cc3)s2)cc1` yielded an inhibition at 6.25 µg/mL of 42%.
